One assay deals with T1, TRB3/p62 PPIs (Homo sapiens, UniProt Q96RU7).
T1 construct: endogenous in cells
T1 sequence (Q96RU7 1-358): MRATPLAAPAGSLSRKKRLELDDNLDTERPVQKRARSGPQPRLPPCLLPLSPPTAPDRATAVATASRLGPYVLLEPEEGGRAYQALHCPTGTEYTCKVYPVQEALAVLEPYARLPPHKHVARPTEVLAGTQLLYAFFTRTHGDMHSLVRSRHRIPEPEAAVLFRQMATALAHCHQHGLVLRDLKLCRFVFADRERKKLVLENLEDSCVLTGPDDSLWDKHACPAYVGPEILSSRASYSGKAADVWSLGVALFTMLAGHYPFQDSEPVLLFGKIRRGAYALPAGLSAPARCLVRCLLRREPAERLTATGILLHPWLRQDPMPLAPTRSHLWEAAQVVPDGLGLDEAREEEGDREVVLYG
Description: Co-immunoprecipitation and CLSM co-localization of TRB3/p62 in activated MRC-5 cells. The format is cell-based. The note with it: TGF-β1 10 ng/mL, peptide 50 µM, 24 h. The protocol: The MRC‐5 cells were seeded on the CLSM dish at a density of 6 × 10^4 cells. After adherence, the solution containing TGF‐β1 (10 ng mL^−1), saline plus TGF‐β1 (10 ng mL^−1), A2 (50 µM) plus TGF‐β1 (10 ng mL^−1), Ac‐GFFY‐A2 (50 µM) TGF‐β1 (10 ng mL^−1), was added to incubate cells for 24 h, respectively. Then, the medium was removed and the cells were washed with cold PBS three times. The cells were fixed with 4% of Paraformaldehyde for 10 min at room temperature. Then, the solution was sucked away, and washed by cold PBS three times for a min each time. 0.1% Triton X‐100 solution was used to disrupt the cell membrane structure. […]
Total proteins were exacted from cells or tissues with RIPA lysis buffer (Beyotime Biotecnology). The protein concentration was measured using BCA Protein Assay Kit (Thermo Scientific). […] The protein transferred PVDF membranes were incubated with following primary antibodies at 4°C overnight: Then the membranes were incubated with horseradish peroxidase (HRP)-conjugated secondary antibodies at room temperature for 1 h, and protein signals were detected using an enhanced chemiluminescence kit (Pierce). […] The co -precipitates were resolved using SDS–PAGE and detected with immunoblotting. […]
Hydroxyproline content of right lung of each mouse was measured using a conventional hydroxyproline method as previously described.

In assay [1] the test system is bleomycin-induced pulmonary fibrosis. The experiment in a line: Bleomycin model of pulmonary fibrosis, therapeutic treatment. The format is in vivo, C57BL/6 mice. The note with it: for survival rate: bleomycin 2 U kg−1 intratracheal, i.v. treatment from 7 days later, Ac-GFFY-A2 10 mg/kg, 21-day period, n = 16. The text has this:
We further evaluated the anti‐fibrotic effect of Ac‐GFFY‐A2 peptide nanofibers in vivo. […] The observed reductions in fibrosis, collagen accumulation, and protein levels of Col 1 and α‐SMA strongly support the efficacy of Ac‐GFFY‐A2 in combating fibrotic processes, confirming that the peptide nanofibers as a TRB3/p62 PPIs modulator with a potent anti‐fibrotic activity.
C57BL/6 mice were intratracheally administered with bleomycin at a dose of 2 U kg^−1 body weight as previously described.^[ [11a] ^]
Hydroxyproline content of the right lung of each mouse was measured using a conventional hydroxyproline method as previously described.^[ [30] ^]
The left lungs cleared of blood were inflated with 10% neutral buffered formalin and fixed overnight. Then the tissues were embedded in paraffin and sectioned. The 5‐µm sections were stained with H&E and Masson trichrome according to the manufacturer`s instructions (Sigma–Aldrich). Immunohistochemistry was performed as previously described.^[ [30] ^] The antibodies specific for α‐SMA and Collagen I were used for staining.

Ends that are not written are not given here.

With Ac-GFFYGGWLTRLLQTK-OH [Ac-GFFY-A2], the “disruption of TRB3/p62 PPIs (co-IP, co-localization)” value on TRB3/p62 PPIs is given as “successfully inhibited the TRB3/p62 PPIs”. Further, the survival rate in assay [1] is listed as 68.75%. In addition, the “quantification of fibrotic left lung sections (lung fibrotic score)” value in assay [1] (bleomycin mice, i.v. treatment, H&E, compared to saline or A2) is given as “significant decrease in fibrosis”. Further, the body weight result in assay [1] (bleomycin mice, i.v. treatment, average body weight curve) is given as “partial recovery from the body weight loss”. Besides, in assay [1] (bleomycin mice, i.v. treatment, bleomycin challenge alone ≈480), the hydroxyproline content result is given as “≈ 280 µg per right lung tissue”.
Turning to GGWLTRLLQTK-OH [A2, reference compound], on TRB3/p62 PPIs, the “disruption of TRB3/p62 PPIs (co-IP, co-localization)” value is listed as “minimal capacity to disrupt the TRB3/p62 PPIs”. The survival rate in assay [1] was 62.50%.

Source of the values: publication PMC11267363, “Supramolecular Nanofibers Ameliorate Bleomycin‐Induced Pulmonary Fibrosis by Restoring Autophagy” (Advanced Science, 2024).
